The record followed here is ChEMBL document CHEMBL1152698, “A novel class of allosteric modulators of AMPA/Kainate receptors” (Bioorg Med Chem Lett, 2009).

The species entered for one data set is Rattus norvegicus. The data set is described as follows: Potentiation of AMPA receptor mediated KA-induced current in Sprague-Dawley rat primary cerebellar granule neurons at 200 uM.
Data set [1] in a line: Extracellular drug level in Sprague-Dawley rat hippocampus at 100 mg/kg, po after 4 hrs. It counts as ADME, organism-based. The following applies: hippocampus extracellular fluid, read-out: Drug uptake. Also on record: dose 100 mg/kg, route oral.
Data set [2] is described as follows: Extracellular drug level in Sprague-Dawley rat hippocampus at 100 mg/kg, po after 6 hrs. It is filed as ADME, organism-based. Also on record: dose 100 mg/kg, route oral. The following applies: hippocampus extracellular fluid, read-out: Drug uptake.
A short description of data set [3]: Potentiation of AMPA receptor mediated KA-induced current in Sprague-Dawley rat primary cerebellar granule neurons.

As to `Nc1ccccc1S(N)(=O)=O`, in the data set filed under Rattus norvegicus, the Activity was -5%.
Regarding `CCNS(=O)(=O)c1cc(Cl)ccc1N`, the Activity in the data set listed under Rattus norvegicus was 12%.
Same read-out and setting: the same measure for `Nc1cc(Cl)c(S(N)(=O)=O)cc1S(N)(=O)=O`: -6%; for `CC1Nc2ccc(Cl)cc2S(=O)(=O)N1` (racemic): 80%.
For the compound `CC(C)Nc1ccc(Cl)cc1S(N)(=O)=O`, the Activity in the data set listed under Rattus norvegicus is 32%.
On to `COc1ccc(S(N)(=O)=O)c(N)c1`, for which, in the data set listed under Rattus norvegicus, the Activity is -5%.
For the compound `Nc1cc(Cl)c(Cl)cc1S(N)(=O)=O`, the Activity in the data set listed under Rattus norvegicus turned out to be 35%.
Consider `CCNc1ccc(Cl)cc1S(N)(=O)=O`, for which the Activity in the data set filed under Rattus norvegicus came out at 91%.
On to `Nc1cc(Cl)ccc1S(N)(=O)=O`, for which the Activity in the data set listed under Rattus norvegicus turned out to be 8%.
For the compound `CNS(=O)(=O)c1cc(Cl)ccc1N`, the Activity in the data set listed under Rattus norvegicus came to 5%.
The EC50 is the concentration needed to bring the measured effect to its halfway point. `Nc1ccc(Cl)cc1S(N)(=O)=O`: the concentration at 4 h in data set [1] is 12000 ng/mL. The concentration at 6 h in data set [2] came to 8000 ng/mL. Moreover, in the data set listed under Rattus norvegicus, the Activity turned out to be 23%. Also, the EC50 in data set [3] came out at 284 µM.
With `Nc1ccc([N+](=O)[O-])cc1S(N)(=O)=O`, in the data set listed under Rattus norvegicus, the Activity is -8%.
As for `CCCNS(=O)(=O)c1cc(Cl)ccc1N`, the Activity in the data set filed under Rattus norvegicus stood at 4%.
The same measure, in the same setting: the same measure for `Cc1cccc(S(N)(=O)=O)c1N`: 7%; for `CNc1ccc(Cl)cc1S(N)(=O)=O`: 69%.
For `CCCNc1ccc(Cl)cc1S(N)(=O)=O`, the Activity in the data set listed under Rattus norvegicus came out at 80%. The EC50 in data set [3] came to 134 µM.
